Results from US20090227575A1, “7H-PYRROLO[2,3-H]QUINAZOLINE COMPOUNDS, THEIR USE AS mTOR KINASE AND PI3 KINASE INHIBITORS, AND THEIR [sequence]” (Wyeth, priority 2008, published 2009).

Tests used:
Format in all cases: biochemical
PI3K-gamma = PI3K-gamma (Homo sapiens, UniProt P48736); test: PI3K-gamma fluorescence polarization assay; conditions: read-out: PI3 Kinase γ IC50
Description: (§1) The reaction buffer was 20 mM HEPES, pH 7.5, 2 mM MgCl2, 0.05% CHAPS; and 0.01% βME (added fresh). The Stop/Detection Buffer was 100 mM HEPES, pH 7.5, 4 mM EDTA, 0.05% CHAPS; ATP 20 mM in water; PIP2 (diC8, Echelon, Salt Lake City Utah cat #P-4508) 1 mM in water (MW=856.5). The GST-GRP was 1.75 mg/mL or 1.4 mg/mL in 10% glycerol. The Red detector (TAMRA) was 2.5 μM. Nunc 384-well black polypropylene fluorescent plates were used for PI3K assays.
(§2) The assay is run by placing 5 μL of diluted enzyme per well, then 5 μL of diluted compound (or 9.5 μL enzyme then 0.5 μL compound in DMSO) is added and mixed. Then, 10 μL substrate is added to start the reaction. The samples are incubated 30-60 minutes, then the reaction is stopped by adding 20 μL stop/detector mix. PI3K is diluted with reaction buffer (e.g., 5 μL or 7.5 μL PI3K into 620 μL reaction buffer), and 5 μL of diluted enzyme is used per well. A 5 μL portion of reaction buffer or of drug diluted in buffer (e.g., 4 μL/100 so final DMSO is 1% in reaction) is added to each. Pipetting up and down mixes the samples. Alternatively, the enzyme can be diluted to 1215 μL. In this case 9.8 μL is added per well and 0.2 μL compound is added in DMSO.
(§3) To prepare 1 mL of substrate solution, 955 μL reaction buffer, 40 μL PIP2, and 2.5 μL ATP are mixed. 10 μL of substrate is added to each well to start the reaction. […] The stop/detector mix is prepared by mixing 4 μL Red detector and 1.6 μL or 2.0 μL GST-GRP with 1 mL stop buffer, which results in 10 nM probe and 70 nM GST-GRP. 20 μL of the stop/detector mix is added to each well to stop the reaction. The plates are read after 30-90 minutes keeping the red probe solutions dark. For the zero time point, stop/detector mix is added to the enzyme just before adding substrate. For an extra control, stop/detector mix is added to buffer (no enzyme) and substrate or to just buffer (no substrate). […] The recommended reaction has 0.06 μL per 20 μL (0.015 μg/20 μL) or 0.01125 μg/15 μL or 0.75 μg/mL.
(§4) Plates are read on machines with filters for TAMRA. The units are mP with no enzyme controls reading app 190-220 mP units. Fully active enzyme reduces fluorescence polarization down to 70-100 mP after 30 minutes. An active compound raises the mP values halfway to control or to 120-150 mP units.

Human mTOR = Human mTOR (Homo sapiens, UniProt P42345); test: mTOR kinase assay (DELFIA format, purified enzyme); set-up: FLAG; conditions: read-out: TOR Kinase IC50
PI3K-alpha = PI3K-alpha (Homo sapiens, UniProt P42336); test: PI3K-alpha fluorescence polarization assay; conditions: read-out: PI3 Kinase α IC50
Sequence of PI3K-alpha (P42336 whole entry, species assumed): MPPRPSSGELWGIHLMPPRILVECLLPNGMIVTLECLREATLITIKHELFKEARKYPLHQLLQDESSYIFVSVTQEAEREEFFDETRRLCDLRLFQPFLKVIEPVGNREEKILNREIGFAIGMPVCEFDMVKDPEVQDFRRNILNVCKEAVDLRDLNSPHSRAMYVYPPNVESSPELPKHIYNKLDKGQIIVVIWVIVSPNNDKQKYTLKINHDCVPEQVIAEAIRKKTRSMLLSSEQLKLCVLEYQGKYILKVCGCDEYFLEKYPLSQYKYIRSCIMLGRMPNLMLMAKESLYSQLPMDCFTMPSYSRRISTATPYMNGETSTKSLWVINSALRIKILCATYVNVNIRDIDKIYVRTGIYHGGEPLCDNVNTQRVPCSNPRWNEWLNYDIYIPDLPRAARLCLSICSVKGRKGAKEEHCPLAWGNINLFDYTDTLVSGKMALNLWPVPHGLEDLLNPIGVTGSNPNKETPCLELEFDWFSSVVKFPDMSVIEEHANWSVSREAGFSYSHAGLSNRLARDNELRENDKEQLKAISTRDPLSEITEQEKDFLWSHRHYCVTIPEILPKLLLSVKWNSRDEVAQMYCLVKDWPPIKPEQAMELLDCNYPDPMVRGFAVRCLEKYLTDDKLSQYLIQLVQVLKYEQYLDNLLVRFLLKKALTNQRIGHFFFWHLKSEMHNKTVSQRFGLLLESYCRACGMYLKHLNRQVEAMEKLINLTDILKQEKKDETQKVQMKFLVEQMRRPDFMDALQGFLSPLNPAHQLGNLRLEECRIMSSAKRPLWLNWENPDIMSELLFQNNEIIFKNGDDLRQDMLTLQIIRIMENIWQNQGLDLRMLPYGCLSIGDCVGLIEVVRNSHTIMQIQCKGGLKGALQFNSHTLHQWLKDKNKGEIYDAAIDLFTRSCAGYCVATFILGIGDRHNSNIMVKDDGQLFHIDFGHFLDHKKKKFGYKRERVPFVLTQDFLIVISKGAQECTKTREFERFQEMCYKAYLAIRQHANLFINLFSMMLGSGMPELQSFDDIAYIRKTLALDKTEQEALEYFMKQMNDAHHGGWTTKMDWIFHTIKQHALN
Sequence of PI3K-alpha (P27986 whole entry partner, species assumed): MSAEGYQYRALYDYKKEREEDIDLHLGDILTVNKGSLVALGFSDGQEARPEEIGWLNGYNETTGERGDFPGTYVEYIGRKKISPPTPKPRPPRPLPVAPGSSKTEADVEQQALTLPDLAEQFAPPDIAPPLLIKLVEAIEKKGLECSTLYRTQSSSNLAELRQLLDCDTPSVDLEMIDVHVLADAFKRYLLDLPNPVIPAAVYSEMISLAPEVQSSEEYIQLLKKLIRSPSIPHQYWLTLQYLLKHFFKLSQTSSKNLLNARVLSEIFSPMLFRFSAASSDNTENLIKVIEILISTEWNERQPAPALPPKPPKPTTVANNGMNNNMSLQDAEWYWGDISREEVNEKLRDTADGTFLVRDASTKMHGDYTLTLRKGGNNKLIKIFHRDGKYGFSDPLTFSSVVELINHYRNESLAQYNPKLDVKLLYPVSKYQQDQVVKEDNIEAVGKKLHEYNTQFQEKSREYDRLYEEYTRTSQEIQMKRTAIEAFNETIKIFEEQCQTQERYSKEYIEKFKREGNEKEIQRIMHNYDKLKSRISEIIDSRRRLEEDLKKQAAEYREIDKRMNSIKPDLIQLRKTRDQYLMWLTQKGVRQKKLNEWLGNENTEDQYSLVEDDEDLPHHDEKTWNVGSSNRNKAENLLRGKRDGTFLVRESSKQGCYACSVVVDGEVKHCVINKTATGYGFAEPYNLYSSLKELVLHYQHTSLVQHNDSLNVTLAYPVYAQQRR
Description: as §1, §2, §3, §4

Sequence of PI3K-gamma (P48736 whole entry, species assumed): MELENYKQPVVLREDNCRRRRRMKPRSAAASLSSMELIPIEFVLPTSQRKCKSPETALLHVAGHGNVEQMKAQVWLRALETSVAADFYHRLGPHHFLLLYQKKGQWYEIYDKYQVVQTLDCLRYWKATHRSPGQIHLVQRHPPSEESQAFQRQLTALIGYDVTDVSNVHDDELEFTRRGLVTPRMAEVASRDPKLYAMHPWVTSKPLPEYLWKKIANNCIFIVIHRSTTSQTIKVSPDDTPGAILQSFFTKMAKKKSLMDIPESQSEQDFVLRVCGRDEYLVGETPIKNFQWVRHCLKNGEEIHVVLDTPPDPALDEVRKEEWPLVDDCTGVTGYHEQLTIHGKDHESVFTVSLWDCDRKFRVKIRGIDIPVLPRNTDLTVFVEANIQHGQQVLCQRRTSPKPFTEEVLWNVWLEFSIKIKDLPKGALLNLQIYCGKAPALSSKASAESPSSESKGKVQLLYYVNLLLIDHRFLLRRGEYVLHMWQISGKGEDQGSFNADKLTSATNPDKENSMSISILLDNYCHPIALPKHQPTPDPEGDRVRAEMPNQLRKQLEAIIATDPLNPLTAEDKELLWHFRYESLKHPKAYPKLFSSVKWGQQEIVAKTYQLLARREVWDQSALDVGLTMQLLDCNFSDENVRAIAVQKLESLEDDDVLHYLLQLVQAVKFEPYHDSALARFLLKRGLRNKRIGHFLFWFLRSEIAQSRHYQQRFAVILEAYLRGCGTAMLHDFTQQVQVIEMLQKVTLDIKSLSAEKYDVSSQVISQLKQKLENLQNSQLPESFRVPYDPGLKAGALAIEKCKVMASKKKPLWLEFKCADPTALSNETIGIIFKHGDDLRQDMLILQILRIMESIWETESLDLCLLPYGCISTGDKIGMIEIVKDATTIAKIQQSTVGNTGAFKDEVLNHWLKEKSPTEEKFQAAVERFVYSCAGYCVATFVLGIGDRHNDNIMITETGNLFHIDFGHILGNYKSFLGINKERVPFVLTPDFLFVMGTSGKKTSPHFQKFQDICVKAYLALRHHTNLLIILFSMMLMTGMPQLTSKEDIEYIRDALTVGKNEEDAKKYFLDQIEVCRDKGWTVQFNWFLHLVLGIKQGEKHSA

| IC50 (PI3K-gamma) [nM] | IC50 (Human mTOR) [nM] | IC50 (PI3K-alpha) [nM] | SMILES |
| --- | --- | --- | --- |
| 2230 | 410 | 174 | Cn1ccc2c3nc(-c4cccc(O)c4)nc(N4CCOCC4)c3ccc21 [Example 35, 3-(7-methyl-4-morpholin-4-yl-7H-pyrrolo[2,3-h]quinazolin-2-yl)phenol] |
| 4000 | 1600 | 1760 | COC(=O)c1ccc(-c2nc(N3CCOCC3)c3ccc4c(ccn4C)c3n2)cc1 [Example 36, Methyl 4-(7-methyl-4-morpholin-4-yl-7H-pyrrolo[2,3-h]quinazolin-2-yl)benzoate] |
| 3590 | 630 | 616 | Cn1ccc2c3nc(-c4ccc(N)nc4)nc(N4CCOCC4)c3ccc21 [Example 42, 5-(7-methyl-4-morpholin-4-yl-7H-pyrrolo[2,3-h]quinazolin-2-yl)pyridin-2-amine] |
| 9500 | 4000 | 9360 | CC(=O)NCc1cccc(-c2nc(N3CCOCC3)c3ccc4c(ccn4C)c3n2)c1 [Example 44, N-[3-(7-methyl-4-morpholin-4-yl-7H-pyrrolo[2,3-h]quinazolin-2-yl)benzyl]acetamide] |
| 2830 | 1130 | 2460 | Cn1ccc2c3nc(-c4cccc5[nH]ccc45)nc(N4CCOCC4)c3ccc21 [Example 45, 2-(1H-indol-4-yl)-7-methyl-4-morpholin-4-yl-7H-pyrrolo[2,3-h]quinazoline] |
| > 10000 | 2050 | > 10000 | COc1ccc(-c2nc(N3CCOCC3)c3ccc4c(ccn4C)c3n2)cn1 [Example 47, 2-(6-methoxypyridin-3-yl)-7-methyl-4-morpholin-4-yl-7H-pyrrolo[2,3-h]quinazoline] |
| > 10000 | 7550 | > 10000 | Cn1ccc2c3nc(-c4ccc(O)nc4)nc(N4CCOCC4)c3ccc21 [Example 48, 5-(7-methyl-4-morpholin-4-yl-7H-pyrrolo[2,3-h]quinazolin-2-yl)pyridin-2-ol] |
| 1010 | 910 | 214 | Cn1ccc2c3nc(-c4cc(O)ccc4Cl)nc(N4CCOCC4)c3ccc21 [Example 53, 4-chloro-3-(7-methyl-4-morpholin-4-yl-7H-pyrrolo[2,3-h]quinazolin-2-yl)phenol] |
| 6160 | 525 | 4340 | CN(C)S(=O)(=O)Nc1cccc(-c2nc(N3CCOCC3)c3ccc4c(ccn4C)c3n2)c1 [Example 55, N,N-dimethyl-N′-[3-(7-methyl-4-morpholin-4-yl-7H-pyrrolo[2,3-h]quinazolin-2-yl)phenyl]sulfamide] |
| 6700 | 50 | 6970 | Cn1ccc2c3nc(-c4cccc(S(=O)(=O)NC5CC5)c4)nc(N4CCOCC4)c3ccc21 [Example 56, N-cyclopropyl-3-(7-methyl-4-morpholin-4-yl-7H-pyrrolo[2,3-h]quinazolin-2-yl)benzenesulfonamide] |
| 560 | 2600 | 63 | CS(=O)(=O)n1ccc2c3nc(-c4cccc(O)c4)nc(N4CCOCC4)c3ccc21 [Example 59, 3-[7-(methylsulfonyl)-4-morpholin-4-yl-7H-pyrrolo[2,3-h]quinazolin-2-yl]phenol] |

The next lines start with the compound.

| SMILES | IC50 (PI3K-gamma) [nM] | IC50 (Human mTOR) [nM] | IC50 (PI3K-alpha) [nM] |
| --- | --- | --- | --- |
| CN(C)CCn1ccc2c3nc(-c4cccc(OCc5ccccc5)c4)nc(N4CCOCC4)c3ccc21 [Example 31, 2-{2-[3-(benzyloxy)phenyl]-4-morpholin-4-yl-7H-pyrrolo[2,3-h]quinazolin-7-yl}-N,N-dimethylethanamine] | 2480 | > 20000 | 4030 |
| CN(C)CCn1ccc2c3nc(-c4cccc(O)c4)nc(N4CCOCC4)c3ccc21 [Example 32, 3-{7-[2-(dimethylamino)ethyl]-4-morpholin-4-yl-7H-pyrrolo[2,3-h]quinazolin-2-yl}phenol] | 3620 | 4550 | 322 |
| CN(C)CCn1ccc2c3nc(-c4ccc(NC(=O)Nc5ccncc5)cc4)nc(N4CCOCC4)c3ccc21 [Example 33, 1-(4-{7-[2-(dimethylamino)ethyl]-4-morpholin-4-yl-7H-pyrrolo[2,3-h]quinazolin-2-yl}phenyl)-3-pyridin-4-ylurea] | 862 | 15 | 222 |
| CN(C)CCn1ccc2c3nc(-c4cnc(N)nc4)nc(N4CCOCC4)c3ccc21 [Example 34, 5-{7-[2-(dimethylamino)ethyl]-4-morpholin-4-yl-7H-pyrrolo[2,3-h]quinazolin-2-yl}pyrimidin-2-amine] | 3190 | 1300 | 201 |
| Cn1ccc2c3nc(-c4cnc(N)nc4)nc(N4CCOCC4)c3ccc21 [Example 43, 5-(7-methyl-4-morpholin-4-yl-7H-pyrrolo[2,3-h]quinazolin-2-yl)pyrimidin-2-amine] | 426 | 247 | 48 |
| Oc1cccc(-c2nc(N3CCOCC3)c3ccc4c(ccn4Cc4ccccc4)c3n2)c1 [Example 46, 3-(7-benzyl-4-morpholin-4-yl-7H-pyrrolo[2,3-h]quinazolin-2-yl)phenol] | 209 | 420 | 216 |
| COc1ncc(-c2nc(N3CCOCC3)c3ccc4c(ccn4C)c3n2)cn1 [Example 50, 2-(2-methoxypyrimidin-5-yl)-7-methyl-4-morpholin-4-yl-7H-pyrrolo[2,3-h]quinazoline] | > 10000 | 2350 | 668 |
| OCc1cccc(-c2nc(N3CCOCC3)c3ccc4[nH]ccc4c3n2)c1 [Example 57] | 3580 | 235 | 514 |
| Nc1ncc(-c2nc(N3CCOCC3)c3ccc4[nH]ccc4c3n2)cn1 [Example 58, -(4-morpholin-4-yl-7H-pyrrolo[2,3-h]quinazolin-2-yl)pyrimidin-2-amine] | 471 | 155 | 102 |
| CC(C)(C)OC(=O)Cn1ccc2c3nc(-c4ccc(N)nc4)nc(N4CCOCC4)c3ccc21 [Example 60, tert-butyl [2-(6-aminopyridin-3-yl)-4-morpholin-4-yl-7H-pyrrolo[2,3-h]quinazolin-7-yl]acetate] | 4890 | 1350 | 775 |
| O=C(Nc1ccncc1)Nc1ccc(-c2nc(N3CCOCC3)c3ccc4c(ccn4S(=O)(=O)C4CCN(C(=O)OCc5ccccc5)CC4)c3n2)cc1 [Example 61, benzyl 4-[(4-morpholin-4-yl-2-{4-[(pyridin-4-ylcarbamoyl)amino]phenyl}-7H-pyrrolo[2,3-h]quinazolin-7-yl)sulfonyl]piperidine-1-carboxylate] | 3490 | 130 | 384 |
| O=C(Nc1ccncc1)Nc1ccc(-c2nc(N3CCOCC3)c3ccc4c(ccn4S(=O)(=O)C4CCNCC4)c3n2)cc1 [Example 62, 1-{4-[4-morpholin-4-yl-7-(piperidin-4-ylsulfonyl)-7H-pyrrolo[2,3-h]quinazolin-2-yl]phenyl}-3-pyridin-4-ylurea] | 519 | 28 | 114 |
| CN1CCC(S(=O)(=O)n2ccc3c4nc(-c5ccc(NC(=O)Nc6ccncc6)cc5)nc(N5CCOCC5)c4ccc32)CC1 [Example 63, 1-(4-{7-[(1-methylpiperidin-4-yl)sulfonyl]-4-morpholin-4-yl-7H-pyrrolo[2,3-h]quinazolin-2-yl}phenyl)-3-pyridin-4-ylurea] | 491 | 67 | 119 |
